Experimental data taken from patent publication US12479822B2, “AHR agonists” (Eli Lilly and Company, priority 2021, dated 2025).
pEC50: −log10 of the molar value.

The compounds below were run against T1, Human AHR (Homo sapiens, UniProt P35869) (assay: hAHR Nuclear Translocation Assay). Conditions: Jump-In T-REx HEK293 cells expressing AhR-EGFP chimera; 45 minutes incubation; ratio of EGFP fluorescent intensity in nuclear over cytosol; 20-point curve.
T1 construct: expressed in transfected cells
T1 sequence (P35869 11-848): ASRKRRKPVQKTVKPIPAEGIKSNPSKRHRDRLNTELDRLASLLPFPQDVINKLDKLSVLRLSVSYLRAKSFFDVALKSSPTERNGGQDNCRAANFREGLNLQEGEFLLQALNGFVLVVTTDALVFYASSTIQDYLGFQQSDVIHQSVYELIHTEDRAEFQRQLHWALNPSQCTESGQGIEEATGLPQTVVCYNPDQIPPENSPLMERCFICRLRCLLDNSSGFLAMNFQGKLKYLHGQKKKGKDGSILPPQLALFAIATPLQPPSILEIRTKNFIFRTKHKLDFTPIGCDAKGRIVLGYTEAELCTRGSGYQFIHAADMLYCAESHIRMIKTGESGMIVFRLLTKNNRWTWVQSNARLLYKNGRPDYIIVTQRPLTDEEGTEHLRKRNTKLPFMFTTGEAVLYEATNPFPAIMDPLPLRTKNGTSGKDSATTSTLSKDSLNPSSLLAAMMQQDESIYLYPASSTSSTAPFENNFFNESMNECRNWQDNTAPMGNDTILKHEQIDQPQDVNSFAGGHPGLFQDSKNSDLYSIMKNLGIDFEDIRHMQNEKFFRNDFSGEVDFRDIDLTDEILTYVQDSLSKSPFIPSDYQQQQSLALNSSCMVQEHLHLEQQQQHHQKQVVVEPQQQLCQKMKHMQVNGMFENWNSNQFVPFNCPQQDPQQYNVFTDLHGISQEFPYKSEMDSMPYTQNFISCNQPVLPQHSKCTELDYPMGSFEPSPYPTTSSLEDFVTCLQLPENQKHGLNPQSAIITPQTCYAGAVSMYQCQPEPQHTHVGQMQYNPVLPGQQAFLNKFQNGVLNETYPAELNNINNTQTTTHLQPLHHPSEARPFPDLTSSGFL
Format: cell-based
Procedure: Stable cell lines were established using Jump-In™ T-REx™ HEK293 Retargeting Kit (Life Technologies). Human AHR cDNA was cloned into the pJTI R4 CMV-TO EGFP vector. The EGFP was cloned to the C-terminal of AHR to form AhR-EGFP chimera. The pJTI R4 CMV-TO AhR-EGFP vector was transfected using FuGENE® HD into Jump-In™ T-REx™ HEK293 cells. Transfected cells were selected using 2.5 mg/ml G418 for 10 to 14 days, then expanded, harvested, and suspended in freeze media (FBS with 8% DMSO) at 2×10^7 cells/ml, and aliquots were stored in liquid nitrogen. […] On the assay date, compound was serially diluted (1:2) into 384-well nunc plates with DMSO using acoustic dispensing (ECHO). The dose response was a 20-point curve. Compound was resuspended in 40 μl of DMEM plus 0.1% BSA. The culture media was damped and 25 μl of DMEM plus 0.1% BSA was added, then 25 μl of compound in DMEM plus 0.1% BSA was added into cell plates. Cells were incubated with compounds at 37° C. and 5% CO2 for 45 minutes. The final DMSO concentration was 0.2%. The media was damped after 45 minutes of incubation. The cells were fixed with 40 μl of cold methanol (−20° C.) for 20 minutes. The methanol was damped and 50 μl of DPBS containing 1 μg/ml Hochst was added into the cell plates. The intensity of EGFP was quantitated by using OPERA PHENIX® or Operetta™ high content image system (Perkin Elmer) with 20× Water Objective and five field per well. The ratio of EGFP fluorescent intensity in nuclear over cytosol was analyzed using a 4-parameter nonlinear logistic equation to determine the potency of AHR agonists.

Row | SMILES | pEC50
1 | O=C(Nc1ncccn1)c1cc2cccc3c2n(c1=O)CC3 [Example 38, 11-Oxo-N-pyrimidin-2-yl-1-azatricyclo[6.3.1.04,12]dodeca-4(12),5,7,9-tetraene-10-carboxamide] | 8.20
2 | Cc1ccnc(NC(=O)c2cc3ccccc3n(C)c2=O)c1 [Example 7, 1-Methyl-N-(4-methyl-2-pyridyl)-2-oxo-quinoline-3-carboxamide] | 8.21
3 | Cn1c(=O)c(C(=O)Nc2ccc(C#N)nc2)cc2ccccc21 [Example 24, N-(6-Cyano-3-pyridyl)-1-methyl-2-oxo-quinoline-3-carboxamide] | 8.13
4 | O=C(Nc1ccc(C(F)(F)F)cc1)c1cc2cccc3c2n(c1=O)CC3 [Example 33, 11-Oxo-N-[4-(trifluoromethyl)phenyl]-1-azatricyclo[6.3.1.04,12]dodeca-4(12),5,7,9-tetraene-10-carboxamide] | 8.88
5 | COc1cnc(NC(=O)c2cc3ccccc3n(C)c2=O)cn1 [Example 16, N-(5-Methoxypyrazin-2-yl)-1-methyl-2-oxo-quinoline-3-carboxamide] | 8.96
6 | O=C(Nc1ccccn1)c1cc2cccc3c2n(c1=O)CC3 [Example 42, 11-Oxo-N-(2-pyridyl)-1-azatricyclo[6.3.1.04,12]dodeca-4(12),5,7,9-tetraene-10-carboxamide] | 8.40
7 | Cc1ccc(NC(=O)c2cc3ccccc3n(C)c2=O)cc1 [Example 5, 1-Methyl-2-oxo-N-(p-tolyl) quinoline-3-carboxamide] | 10.01
8 | Cn1c(=O)c(C(=O)Nc2cccc(F)c2)cc2ccccc21 [Example 23, N-(3-Fluorophenyl)-1-methyl-2-oxo-quinoline-3-carboxamide] | 9.22
9 | Cn1c(=O)c(C(=O)Nc2ccncc2)cc2ccccc21 [Example 12, 1-Methyl-2-oxo-N-(4-pyridyl)quinoline-3-carboxamide] | 8.16
10 | Cc1cnc(NC(=O)c2cc3ccccc3n(C)c2=O)nc1 [Example 17, 1-Methyl-N-(5-methylpyrimidin-2-yl)-2-oxo-quinoline-3-carboxamide] | 8.63
11 | COc1ccc(NC(=O)c2cc3cccnc3n(C)c2=O)cc1 [Example 35, N-(4-Methoxyphenyl)-1-methyl-2-oxo-1,8-naphthyridine-3-carboxamide] | 8.64
12 | Cn1c(=O)c(C(=O)Nc2ccc(F)cn2)cc2ccccc21 [Example 22, N-(5-Fluoro-2-pyridyl)-1-methyl-2-oxo-quinoline-3-carboxamide] | 9.41
13 | Cn1c(=O)c(C(=O)Nc2cccnc2)cc2ccccc21 [Example 13, 1-Methyl-2-oxo-N-(3-pyridyl)quinoline-3-carboxamide] | 8.43
14 | Cn1c(=O)c(C(=O)Nc2ccccc2)cc2ccc(Br)cc21 [Example 40, 7-Bromo-1-methyl-2-oxo-N-phenyl-quinoline-3-carboxamide] | 9.08
15 | O=C(Nc1ccc(F)cc1)c1cc2cccc3c2n(c1=O)CC3 [Example 30, N-(4-Fluorophenyl)-11-oxo-1-azatricyclo[6.3.1.04,12]dodeca-4(12),5,7,9-tetraene-10-carboxamide] | 9.29
16 | COc1cccc(NC(=O)c2cc3ccccc3n(C)c2=O)c1 [Example 8, N-(3-Methoxyphenyl)-1-methyl-2-oxo-quinoline-3-carboxamide] | 8.95
17 | COc1ccc(NC(=O)c2cc3cccc4c3n(c2=O)CC4)cc1 [Example 26, N-(4-Methoxyphenyl)-11-oxo-1-azatricyclo[6.3.1.04,12]dodeca-4(12),5,7,9-tetraene-10-carboxamide] | 9.15
18 | Cn1c(=O)c(C(=O)Nc2ccccc2O)cc2ccccc21 [Example 2, N-(2-Hydroxyphenyl)-1-methyl-2-oxo-quinoline-3-carboxamide] | 8.62

Continued, values first:

Row | pEC50 | SMILES
19 | 7.28 | Cn1c(=O)c(C(=O)Nc2ncc(F)s2)cc2c(NCCO)cccc21 [Example 64, N-(5-Fluorothiazol-2-yl)-5-(2-hydroxyethylamino)-1-methyl-2-oxo-quinoline-3-carboxamide]
20 | 8.72 | Cn1c(=O)c(C(=O)Nc2ccc(F)cn2)cc2c(NCCO)cccc21 [Example 67, N-(5-Fluoro-2-pyridyl)-5-(2-hydroxyethylamino)-1-methyl-2-oxo-quinoline-3-carboxamide]
21 | 7.79 | CN(C)CCNc1cccc2c1cc(C(=O)Nc1ccccn1)c(=O)n2C [Example 53, 5-[2-(Dimethylamino)ethylamino]-1-methyl-2-oxo-N-(2-pyridyl)quinoline-3-carboxamide]
22 | 7.67 | CN(C)CCNc1cccc2c1cc(C(=O)Nc1ccccc1)c(=O)n2C [Example 48, 5-[2-(Dimethylamino)ethylamino]-1-methyl-2-oxo-N-phenyl-quinoline-3-carboxamide]
23 | 8.85 | Cn1c(=O)c(C(=O)Nc2ccccc2)cc2c(OCCO)cccc21 [Example 60, 5-(2-Hydroxyethoxy)-1-methyl-2-oxo-N-phenyl-quinoline-3-carboxamide]
24 | 8.22 | Cn1c(=O)c(C(=O)Nc2ccccc2)cc2cc(NCCO)ccc21 [Example 62, 6-(2-Hydroxyethylamino)-1-methyl-2-oxo-N-phenyl-quinoline-3-carboxamide]
25 | 7.72 | Cn1c(=O)c(C(=O)Nc2ccccn2)cc2cc(OCCO)ccc21 [Example 59, 6-(2-Hydroxyethoxy)-1-methyl-2-oxo-N-(2-pyridyl)quinoline-3-carboxamide]
26 | 8.72 | Cn1c(=O)c(C(=O)Nc2ccccc2)cc2c(NCCO)cccc21 [Example 63, 5-(2-Hydroxyethylamino)-1-methyl-2-oxo-N-phenyl-quinoline-3-carboxamide]
27 | 8.05 | CN(C)CCNc1ccc2c(c1)cc(C(=O)Nc1ccccc1)c(=O)n2C [Example 49, 6-[2-(Dimethylamino)ethylamino]-1-methyl-2-oxo-N-phenyl-quinoline-3-carboxamide]
28 | 7.27 | Cn1c(=O)c(C(=O)Nc2ccc(F)cn2)cc2cc(NCCO)ccc21 [Example 66, N-(5-Fluoro-2-pyridyl)-6-(2-hydroxyethylamino)-1-methyl-2-oxo-quinoline-3-carboxamide]
29 | 8.17 | Cn1c(=O)c(C(=O)Nc2ccccn2)cc2c(NCCO)cccc21 [Example 65, 5-(2-Hydroxyethylamino)-1-methyl-2-oxo-N-(2-pyridyl)quinoline-3-carboxamide]
30 | 7.20 | CN(C)CCNc1cccc2c1cc(C(=O)Nc1ncc(F)cn1)c(=O)n2C [Example 57, 5-[2-(Dimethylamino)ethylamino]-N-(5-fluoropyrimidin-2-yl)-1-methyl-2-oxo-quinoline-3-carboxamide]
31 | 7.74 | CN(C)CCNc1cccc2c1cc(C(=O)Nc1ncc(C(F)(F)F)cn1)c(=O)n2C [Example 54, 5-[2-(Dimethylamino)ethylamino]-1-methyl-2-oxo-N-[5-(trifluoromethyl)pyrimidin-2-yl]quinoline-3-carboxamide]
32 | 7.57 | CN(C)CCNc1cccc2cc(C(=O)Nc3ccccc3)c(=O)n(C)c12 [Example 50, 8-[2-(Dimethylamino)ethylamino]-1-methyl-2-oxo-N-phenyl-quinoline-3-carboxamide]
33 | 7.79 | CN(C)CCNc1cccc2c1cc(C(=O)Nc1ccc(F)cn1)c(=O)n2C [Example 51, 5-[2-(Dimethylamino)ethylamino]-N-(5-fluoro-2-pyridyl)-1-methyl-2-oxo-quinoline-3-carboxamide]
34 | 7.10 | COc1ccc(NC(=O)c2cc3ccc(NCCN(C)C)cc3n(C)c2=O)cc1 [Example 56, 7-[2-(Dimethylamino)ethylamino]-N-(4-methoxyphenyl)-1-methyl-2-oxo-quinoline-3-carboxamide]
